Assay results published in US20120065126A1, “Pharmaceutical Compositions Containing Antifungal Peptides” (BASF SE, priority 2009, published 2012).

What was measured:
[1] = test system: Malassezia furfur; experiment: Effect of P18 in the presence of nonionic and zwitterionic surfactants (CFU); type: cell-based; conditions: 24 hours
Experimental: The aim of the experiment was to study the effect of nonionic and zwitterionic surfactants on the activity of P18 peptide (P18 sequence […]). For this purpose, the following surfactants were used: Pluracare F 68 (a polyoxyethylene-polyoxypropylene-polyoxyethylene block copolymer) Plantacare 818 (a glucoside) Tego Betain L7 (cocamidopropyl betaine) The growth test was effected as follows: a shake culture containing […]. furfur and incubated with shaking at 30° C. and 200 rpm overnight. […] The concentrations of the detergent solutions were adjusted such that the final concentration of the particular detergent in the mixture was 2%; 4% or 6%. The concentrations of the P18 peptide solutions were adjusted such that the final concentration of the P18 peptide in the mixture was 0 μM; 50 μM; 100 μM; 250 μM; or 500 μM. The microtiter plate was incubated with shaking at 30° C. […] The CFU was determined in order to rule out any influence of the biphasic medium, and also the growth form of M. furfur, on the optical density. The experiments were each conducted in triplicate determination at least in two independent experiments.

[2] = test system: Klebsiella pneumoniae (DSM 681); type: cell-based; conditions: DSM 681, 24 h
Source text: Effect of peptide P18 (P18 sequence H-KWKLFKKIPKFLHLAKKF-NH2 (Bachem AG, Switzerland)) on Klebsiella pneumoniae (DSM 681) to study.
TSBY growth medium (Becton, Dickinson and Company, Sparks, USA) 17 g of pancreatin-degraded caseine 3 g of pancreatin-degraded soya 2.5 g of dextrose 5 g of sodium chloride 2.5 g of dipotassium phosphate 3 g of yeast extract (Becton, Dickinson and Company, Sparks, USA) make up to 1 liter, set pH 7
A shake culture containing TSBY medium was inoculated with K. pneumoniae and incubated with shaking at 37° C. and 200 rpm overnight.
The suspension was adjusted to an optical density measured at 600 nm of 0.1. A 96-well microtiter plate was filled with 95 μl per well of the K. pneumoniae suspension. Then a dilution series of the peptide with a final concentration in the wells between 0 and 1000 ppm was added. To this end, 5 μl per well of peptide solution with a concentration in the range from 0 ppm to 20 000 ppm were added to the K. pneumoniae suspension, so as to obtain final concentrations of the peptide in the wells in the range between 0 ppm and 1000 ppm.
The microtiter plate was incubated at 37° C., 600 rpm. The bacterial growth was assessed by measuring the optical density at 620 nm and observing it over 24 hours. The experiments were conducted at least in double determination and were independently repeated at least once.

[3] = Formulability of P18 in shampoo base formulations; type: physicochemical; conditions: 10 mM P18 in formulations 31-1 and 31-2, 5 mM in 31-3; pH 6-7
Experimental: The formulability of the peptide P18 was tested in three different shampoo base formulations. For this purpose, the formulations with the following compositions were first produced:
The components were mixed and dissolved. NaOH was used to adjust the pH to pH 6-7. Thereafter, two 100 mM solutions of peptide P18 (P18 sequence H-KWKLFKKIPKFLHLAKKF-NH2) were prepared. DMSO was the solvent for one solution; it was water for the other solution. The appropriate volume of the 100 mM P18 peptide solution was added to each of the formulations, such that the final concentration in formulations 31-1 and 31-2 was 10 mM, and the final concentration of peptide P18 in formulation 31-3 was 5 mM.

[4] = test system: M. furfur DSM 6170; experiment: Comparison of the efficacy of P18 and AFPP in a shampoo formulation (CFU); type: cell-based, Malassezia furfur; conditions: 1:10 with culture medium
Experimental: In order to study the efficacy of AFPP compared to P18 (SEQ ID NO. 3; sequence: KWKLFKKIPKFLHLAKKF-NH2 (Bachem AG, Switzerland)) in a shampoo formulation, the experiment described in Example 24 was repeated with a shampoo formulation.
Both peptides were present as 2% (w/w) solutions in phosphate buffer (10 mM sodium phosphate, pH 7.5, 100 mM NaCl).
Peptide solution with a final concentration of 0.1% and 0.2% was added to the shampoo formulation. The resulting formulations were stirred over 16 hours in order to obtain homogeneous solutions. The same procedure was repeated with equivalent volumes of the phosphate buffer in order to rule out any influence of the phosphate buffer on the test results.
The growth test was effected as follows: a shake culture containing M472 Pityrosporum medium was inoculated with M. furfur DSM 6170 (DSMZ) and incubated with shaking at 30° C. and 200 rpm overnight.
For each test mixture, a 1.5 ml reaction vessel was filled with Pityrosporum medium and inoculated with the M. furfur overnight culture to give a start OD of 0.1, measured at 600 nm.
The growth of the following test mixtures was monitored: • M. furfur suspension and addition of phosphate buffer in shampoo formulation in an equivalent amount to the volumes which were added with peptide-shampoo solution (in order to rule out any influence of the phosphate buffer on the effect of the active peptides at concentrations in the shampoo formulation of 0.1% or 0.2%) • M. furfur suspension and shampoo formulation with a P18 concentration of 0.1% • M. furfur suspension and shampoo formulation with a P18 concentration of 0.2% • M. furfur suspension and shampoo formulation with an AFPP concentration of 0.1% • M. furfur suspension and shampoo formulation with a final AFPP concentration of 0.2%
The ratio of the shampoo formulation to the M. furfur culture medium was 1:10 in all test mixtures (shampoo formulation: M. furfur culture medium). The reaction volume was 1 ml.
The growth of M. furfur in the test mixtures was observed over a period of 20 minutes. For this purpose, the mixtures were diluted in M472 medium in a ratio of 1:10 after 10 minutes and 20 minutes, and then 10 μl were plated out. The CFU (colony forming units) were determined by counting after incubation at 30° C. for 6 days.
The experiments were effected in double determination and were independently repeated at least once.

H-KWKLFKKIPKFLHLAKKF-NH2 [P18, H-KWKLFKKIPKFLHLAKKF-NH2]
Colony forming units (CFU) counted per μl ([1]; Plantacare 818 2%, P18 50 μM): 6 CFU per μl | Colony forming units (CFU) counted per μl ([1]; Plantacare 818 2%, P18 100 μM): 0 CFU per μl | Colony forming units (CFU) counted per μl ([1]; Plantacare 818 2%, P18 250 μM): 0 CFU per μl | Colony forming units (CFU) counted per μl ([1]; Plantacare 818 2%, P18 500 μM): 0 CFU per μl | Colony forming units (CFU) counted per μl ([1]; Plantacare 818 4%, P18 50 μM): 39 CFU per μl | Colony forming units (CFU) counted per μl ([1]; Plantacare 818 4%, P18 100 μM): 5 CFU per μl | Colony forming units (CFU) counted per μl ([1]; Plantacare 818 4%, P18 250 μM): 0 CFU per μl | Colony forming units (CFU) counted per μl ([1]; Plantacare 818 4%, P18 500 μM): 0 CFU per μl | Colony forming units (CFU) counted per μl ([1]; Plantacare 818 6%, P18 50 μM): 106 CFU per μl | Colony forming units (CFU) counted per μl ([1]; Plantacare 818 6%, P18 100 μM): 10 CFU per μl | Colony forming units (CFU) counted per μl ([1]; Plantacare 818 6%, P18 250 μM): 0 CFU per μl | Colony forming units (CFU) counted per μl ([1]; Plantacare 818 6%, P18 500 μM): 0 CFU per μl | Colony forming units (CFU) counted per μl ([1]; Pluracare F68 2%, P18 50 μM): 4 CFU per μl | Colony forming units (CFU) counted per μl ([1]; Pluracare F68 2%, P18 100 μM): 1 CFU per μl | Colony forming units (CFU) counted per μl ([1]; Pluracare F68 2%, P18 250 μM): 0 CFU per μl | Colony forming units (CFU) counted per μl ([1]; Pluracare F68 2%, P18 500 μM): 0 CFU per μl | Colony forming units (CFU) counted per μl ([1]; Pluracare F68 4%, P18 50 μM): 2 CFU per μl | Colony forming units (CFU) counted per μl ([1]; Pluracare F68 4%, P18 100 μM): 0 CFU per μl | Colony forming units (CFU) counted per μl ([1]; Pluracare F68 4%, P18 250 μM): 0 CFU per μl | Colony forming units (CFU) counted per μl ([1]; Pluracare F68 4%, P18 500 μM): 0 CFU per μl | Colony forming units (CFU) counted per μl ([1]; Tego Betain L7 2%, P18 50 μM): 0 CFU per μl | Colony forming units (CFU) counted per μl ([1]; Tego Betain L7 2%, P18 100 μM): 0 CFU per μl | Colony forming units (CFU) counted per μl ([1]; Tego Betain L7 2%, P18 250 μM): 0 CFU per μl | Colony forming units (CFU) counted per μl ([1]; Tego Betain L7 2%, P18 500 μM): 0 CFU per μl | Colony forming units (CFU) counted per μl ([1]; Tego Betain L7 4%, P18 50 μM): 3 CFU per μl | Colony forming units (CFU) counted per μl ([1]; Tego Betain L7 4%, P18 100 μM): 0 CFU per μl | Colony forming units (CFU) counted per μl ([1]; Tego Betain L7 4%, P18 250 μM): 0 CFU per μl | Colony forming units (CFU) counted per μl ([1]; Tego Betain L7 4%, P18 500 μM): 0 CFU per μl | Colony forming units (CFU) counted per μl ([1]; Tego Betain L7 6%, P18 50 μM): 0 CFU per μl | Colony forming units (CFU) counted per μl ([1]; Tego Betain L7 6%, P18 100 μM): 0 CFU per μl | Colony forming units (CFU) counted per μl ([1]; Tego Betain L7 6%, P18 250 μM): 0 CFU per μl | Colony forming units (CFU) counted per μl ([1]; Tego Betain L7 6%, P18 500 μM): 0 CFU per μl | Minimum inhibitory concentration [2]: 125 ppm | Appearance of the formulations with P18 [3]: clear and homogenous | Colony forming units after the incubation time specified ([4]; 0.1% in the shampoo formulation, 10 minutes): 80 ± 10 CFU | Colony forming units after the incubation time specified ([4]; 0.1% in the shampoo formulation, 20 minutes): 38 ± 21 CFU | Colony forming units after the incubation time specified ([4]; 0.2% in the shampoo formulation, 10 minutes): 21 ± 17 CFU | Colony forming units after the incubation time specified ([4]; 0.2% in the shampoo formulation, 20 minutes): 3 ± 1 CFU
